For twelve molecules, TGI and GI50 results are on record in PubChem BioAssay (NCI).

Where “and” joins values, the source holds several entries; their conditions need not be identical. Equal entries are not always repeated.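 Interpolation was linear, between the two tested concentrations surrounding the appropriate level; five concentrations were tested over 48 hours in 96-well plates. The concentration for 50% growth inhibition is given as GI50. TGI: concentration producing complete growth inhibition.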

Among the test systems are OVCAR-3 ovarian; ACHN renal; KM12 colon; SW-620 colon; SF-295 CNS; NCI-H23 lung; SN12C renal; UACC-62 melanoma; PC-3 prostate.
Common to all, as to assay: NCI tumour cell line growth inhibition, 48 h

In the case of `Cc1ccc2c(c1)C1C(CO2)C(c2ccccc2)=NN1c1ccccc1` (stereo not given), the TGI with OVCAR-3 ovarian, in the assay with ACHN renal, in the assay with KM12 colon, with SW-620 colon, with SF-295 CNS and in the assay on NCI-H23 lung was > 100 µM each time.

On to `COC(=O)N/N=C(\C(=O)Nc1cccc([N+](=O)[O-])c1)c1nc2ccc([N+](=O)[O-])cc2[nH]c1=O`, for which the TGI is > 100 µM in the assay on OVCAR-3 ovarian; > 100 µM in the assay on SN12C renal; > 100 µM in the assay with ACHN renal; > 100 µM in the assay on KM12 colon; 58.5 µM with UACC-62 melanoma; > 100 µM in the assay on SW-620 colon. Further, the TGI with SF-295 CNS and in the assay on NCI-H23 lung was > 100 µM throughout.

Regarding `COC(=O)NN1C(C)=C(C(=O)OC)C2(C#N)C(C(=O)OC)=C(C)N(NC(=O)OC)C12N` (stereo not given), the TGI in the assay on SN12C renal, in the assay on ACHN renal, with UACC-62 melanoma, with SW-620 colon and in the assay on NCI-H23 lung was > 100 µM each time.

With `CSc1ccc(OCC2OC2O)cc1` (stereo not given), the TGI is > 100 µM with OVCAR-3 ovarian; > 100 µM in the assay with SN12C renal; > 100 µM in the assay with ACHN renal; > 95.9 µM in the assay with KM12 colon; > 100 µM in the assay with UACC-62 melanoma; > 30.7 µM in the assay with SW-620 colon. For the same molecule, the TGI in the assay on SF-295 CNS and with NCI-H23 lung was > 100 µM throughout.

As for `CC1=NN2C(c3ccc(C)cc3)=CSC2=NC(C)(C)C1`, the TGI in the assay with OVCAR-3 ovarian, with SN12C renal, in the assay on ACHN renal, in the assay on KM12 colon, with UACC-62 melanoma and with SW-620 colon was > 100 µM in each case. For the same molecule, the TGI in the assay with SF-295 CNS and in the assay on NCI-H23 lung was > 100 µM throughout.

On to `C1COCCOCCOCCOCCOCCO1.[Cl][Sn]([Cl])([c]1ccccc1)[c]1ccccc1`, for which the GI50 with OVCAR-3 ovarian was 4.88 µM; in the assay with SN12C renal, 7.02 µM; in the assay with ACHN renal, 10.9 µM; with KM12 colon, 12.6 µM; in the assay on UACC-62 melanoma it was 1860 nM; in the assay on SW-620 colon it was 1650 nM. In addition, the results for the GI50 with SF-295 CNS and with NCI-H23 lung were 16.1 µM and 2970 nM, respectively. The TGI with OVCAR-3 ovarian was 15.5 µM; in the assay with SN12C renal it was 20.4 µM; with ACHN renal, 22.8 µM; with KM12 colon, 26.4 µM; with UACC-62 melanoma it was 4.12 µM; in the assay with SW-620 colon, 3.28 µM. In addition, the TGI with SF-295 CNS amounted to 30 µM; in the assay on NCI-H23 lung, 8.84 µM.

Turning to `NCCCn1c2c(c3ccc([N+](=O)[O-])cc3c1=O)C(=O)c1cc(-c3ccccc3)ccc1-2`, the GI50 is 1.65 µM with OVCAR-3 ovarian; 0.824 µM in the assay with SN12C renal; 1.56 µM in the assay with ACHN renal; 1350 nM with PC-3 prostate; 0.291 µM in the assay on KM12 colon; 1550 nM in the assay on UACC-62 melanoma. In addition, the GI50 in the assay on SW-620 colon was 182 nM; in the assay with SF-295 CNS it was 1.79 µM; with NCI-H23 lung, 1290 nM. In addition, the TGI turned out to be 3.1 µM in the assay with OVCAR-3 ovarian; 2.34 µM in the assay on SN12C renal; 3.08 µM with ACHN renal; 2710 nM with PC-3 prostate; 0.818 µM in the assay with KM12 colon; 3 µM with UACC-62 melanoma. The TGI in the assay on SW-620 colon stood at 0.336 µM; in the assay with SF-295 CNS, 3.45 µM; in the assay on NCI-H23 lung, 2.88 µM.

Regarding `C/C=C(/CCC1NCCC2c3ccccc3NC12)[Si](C)(C)C` (stereo not given), the TGI worked out at 24 µM in the assay with OVCAR-3 ovarian; 23.9 µM in the assay with SN12C renal; 27.2 µM in the assay with ACHN renal; 15.6 µM with KM12 colon; 26.4 µM in the assay on UACC-62 melanoma; 9.68 µM in the assay with SW-620 colon. For the same molecule, the TGI turned out to be 29.1 µM with SF-295 CNS and 28.8 µM with NCI-H23 lung.

Regarding `NC1=NN(c2ccccc2)C(=O)C1/C(=N\NC(=O)c1cc2ccccc2cc1O)C(=O)Nc1cccc(C(F)(F)F)c1` (stereo not given), the TGI with OVCAR-3 ovarian, with SN12C renal, in the assay on ACHN renal, with KM12 colon, in the assay on UACC-62 melanoma and in the assay on SW-620 colon was > 100 µM in each case. The TGI in the assay with SF-295 CNS and in the assay on NCI-H23 lung was > 100 µM throughout.

Turning to `COC(=O)C[CH2][Ge]([CH3])([CH3])[S]c1ccccc1`, the GI50 in the assay on OVCAR-3 ovarian was 29.9 µM; with SN12C renal, 18.3 µM; with ACHN renal, 28.6 µM; in the assay with KM12 colon it was 36 µM; in the assay on UACC-62 melanoma, 21900 nM; in the assay on SW-620 colon, 16700 nM. Also, the GI50 in the assay with SF-295 CNS was 18 µM; with NCI-H23 lung it was 43300 nM. Besides, the TGI was > 100 µM with OVCAR-3 ovarian; 37.2 µM in the assay on SN12C renal; 88.4 µM with ACHN renal; > 100 µM in the assay on KM12 colon; 60.9 µM with UACC-62 melanoma; 31.4 µM with SW-620 colon. Moreover, the TGI in the assay with SF-295 CNS was 62.3 µM; in the assay with NCI-H23 lung it was > 100 µM.

For the molecule `C=C(C)C1CC=C(C)CC1` (stereo not given), the GI50 is > 100 µM in the assay with OVCAR-3 ovarian; > 100 µM in the assay with SN12C renal; > 100 µM with ACHN renal; > 100 µM in the assay on KM12 colon; > 100000 nM in the assay with UACC-62 melanoma; > 100000 nM in the assay on SW-620 colon. For the same molecule, the GI50 was > 100 µM with SF-295 CNS and > 100000 nM in the assay on NCI-H23 lung. In addition, the TGI is > 100 µM and 1590 µM with OVCAR-3 ovarian; > 100 µM and 1640 µM in the assay on SN12C renal; > 100 µM and 1570 µM in the assay on ACHN renal; > 100 µM and 1830 µM in the assay on KM12 colon; > 100 µM and 1550 µM with UACC-62 melanoma; > 100 µM and 1590 µM with SW-620 colon. Moreover, the TGI was > 100 µM and 1630 µM in the assay on SF-295 CNS; > 100 µM and 1690 µM in the assay on NCI-H23 lung.

With `COC(=O)C1=Cc2cc(OC)c(OC)cc2[C@H](c2ccc(OC)c(OC)c2)C1C(=O)OC` (stereo not given in full), the TGI with OVCAR-3 ovarian, in the assay on SN12C renal, in the assay with ACHN renal, in the assay with KM12 colon, in the assay on UACC-62 melanoma and with SW-620 colon was > 100 µM each time. Moreover, the TGI in the assay with SF-295 CNS and in the assay with NCI-H23 lung was > 100 µM throughout.
